Experimental data reported in patent publication US8841321B2, “Quinoline derivatives as antibacterial agents” (Janssen Pharmaceutica NV, priority 2005, dated 2014).
In brackets after ≈: the same amount, converted by molar mass.

Key:
Assay in all cases: Microtitre plate assay, IC90 determination
Assay type in all cases: cell-based
[1] = tested on: PAE 27853 (Pseudomonas aeruginosa (ATCC27853)); details: for IC90 (μg/ml) PAE 27853: Pseudomonas aeruginosa (ATCC27853); for IC90: Pseudomonas aeruginosa, ATCC27853, Pseudomonas aeruginosa (ATCC27853), read-out: IC90 (μg/ml) PAE 27853
[2] = tested on: BSU 43639 (Bacillus subtilis (ATCC43639)); details: for IC90 (μg/ml) BSU 43639: Bacillus subtilis (ATCC43639); for IC90: Bacillus subtilis, ATCC43639, Bacillus subtilis (ATCC43639), read-out: IC90 (μg/ml) BSU 43639
[3] = tested on: EFA 29212 (Enterococcus faecalis (ATCC29212)); details: for IC90 (μg/ml) EFA 29212: Enterococcus faecalis (ATCC29212)
[4] = tested on: STA 29213 (Staphylococcus aureus (ATCC29213)); details: for IC90 (μg/ml) STA 29213: Staphylococcus aureus (ATCC29213)
Method in brief: (§1)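 Growth-inhibition endpoint: resazurin added 3 h after inoculation, plates incubated overnight, fluorescence at 530/590 nm after 24 h at 37 °C. Inocula of roughly 10–60 CFU per well in Mueller-Hinton medium; compounds titrated five-fold. IC90 reported as μg/ml.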

[5] = tested on: SPN 6305 (Streptococcus pneumoniae (ATCC6305)); details: Streptococcus pneumoniae (ATCC6305)
Method in brief: as §1

[6] = tested on: SPY 8668 (Streptococcus pyogens (ATCC8668)); details: for IC90 (μg/ml) SPY 8668: Streptococcus pyogens (ATCC8668); for IC90: Streptococcus, ATCC8668, Streptococcus pyogens (ATCC8668), read-out: IC90 (μg/ml) SPY 8668
[7] = tested on: STA 25923 (Staphylococcus aureus (ATCC25923)); details: Staphylococcus aureus (ATCC25923)
[8] = tested on: STA RMETH (methicilline resistant Staphylococcus aureus (MRSA), a clinical isolate from the University of Antwerp)
[9] = tested on: LMO 49594 (Listeria monocytogenes (ATCC49594)); details: for IC90 (μg/ml) LMO 49594: Listeria monocytogenes (ATCC49594); for IC90: Listeria monocytogenes, ATCC49594, Listeria monocytogenes (ATCC49594), read-out: IC90 (μg/ml) LMO 49594

Row | SMILES | IC90 (μg/ml) PAE 27853 [1] [µg/mL] | IC90 (μg/ml) BSU 43639 [2] [µg/mL] | IC90 (μg/ml) EFA 29212 [3] [µg/mL] | IC90 (μg/ml) STA 29213 [4] [µg/mL] | IC90 (μg/ml) SPN 6305 [5] [µg/mL] | IC90 (μg/ml) SPY 8668 [6] [µg/mL] | IC90 (μg/ml) STA 25923 [7] [µg/mL] | IC90 (μg/ml) STA RMETH [8] [µg/mL] | IC90 (μg/ml) LMO 49594 [9] [µg/mL] | IC90 [1] [µg/mL] | IC90 [2] [µg/mL] | IC90 ([3]; Enterococcus faecalis, ATCC29212, Enterococcus faecalis (ATCC29212), read-out: IC90 (μg/ml) EFA 29212) [µg/mL] | IC90 [6] [µg/mL] | IC90 ([8]; Staphylococcus aureus, MRSA, read-out: IC90 (μg/ml) STA RMETH) [µg/mL] | IC90 [9] [µg/mL] | IC90 ([4]; Staphylococcus aureus, ATCC29213, Staphylococcus aureus (ATCC29213), read-out: IC90 (μg/ml) STA 29213) [µg/mL]
1 | COc1nc2ccc(Br)cc2cc1C(c1ccccc1)C(O)(CCCN1CCCC1)c1ccc2ccccc2c1 (racemic) [Compound 48] | 47.3 (≈ 79.4 µM) | 59.6 (≈ 100 µM) | 59.6 (≈ 100 µM) | 47.3 (≈ 79.4 µM) | 59.6 (≈ 100 µM) | 47.3 (≈ 79.4 µM) | 9.4 (≈ 15.8 µM) | 9.4 (≈ 15.8 µM) | 23.7 (≈ 39.8 µM) |  |  |  |  |  |  | 
2 | CSc1nc2ccc(Br)cc2cc1C(c1ccccc1)C(O)(CCCCN(C)C)c1ccc2ccccc2c1 (single isomer, unassigned) [Compound 4] |  |  |  | 1.9 (≈ 3.17 µM) | 1.9 (≈ 3.17 µM) |  |  |  |  | 1.9 (≈ 3.17 µM) | 9.5 (≈ 15.8 µM) | 9.5 (≈ 15.8 µM) | 1.9 (≈ 3.17 µM) | 9.5 (≈ 15.8 µM) | 9.5 (≈ 15.8 µM) | 
3 | COc1ccc2cc(C(O)(CCCCN(C)C)C(c3ccccc3)c3cc4cc(Br)ccc4nc3OC)ccc2c1 (single isomer, unassigned) [Compound 6] | 9.7 (≈ 15.8 µM) | 9.7 (≈ 15.8 µM) | 9.7 (≈ 15.8 µM) | 4.3 (≈ 7.01 µM) | 4.9 (≈ 7.99 µM) | 1.9 (≈ 3.1 µM) |  | 9.7 (≈ 15.8 µM) | 9.7 (≈ 15.8 µM) |  |  |  |  |  |  | 
4 | COc1nc2ccc(Br)cc2cc1C(c1ccccc1)C(O)(CCCCN1CCN(C)CC1)CCc1ccccc1 (single isomer, unassigned) [Compound 138] | 2.19 (≈ 3.55 µM) |  | 1.74 (≈ 2.82 µM) | 2.45 (≈ 3.97 µM) | 2.19 (≈ 3.55 µM) | 0.87 (≈ 1.41 µM) |  | 12.3 (≈ 19.9 µM) |  |  |  |  |  |  |  | 
5 | COc1nc2ccc(Br)cc2cc1C(c1ccccc1)C(O)(CCCCN1CCN(C)CC1)CCc1ccc(C)cc1 (single isomer, unassigned) [Compound 141] | 4.46 (≈ 7.07 µM) |  | 4.46 (≈ 7.07 µM) | 1.99 (≈ 3.16 µM) | 1.99 (≈ 3.16 µM) | 4.46 (≈ 7.07 µM) |  | 14.12 (≈ 22.4 µM) |  |  |  |  |  |  |  | 
6 | CSc1nc2ccc(Br)cc2cc1C(c1ccccc1)C(O)(CCCCN(C)C)c1ccccc1 (centres unmarked) [Compound 1] | 1.95 (≈ 3.55 µM) |  | 6.92 (≈ 12.6 µM) | 1.74 (≈ 3.17 µM) | 1.74 (≈ 3.17 µM) | 1.74 (≈ 3.17 µM) |  | 12.3 (≈ 22.4 µM) |  |  |  |  |  |  |  | 
7 | CSc1nc2ccc(Br)cc2cc1C(c1ccccc1)C(O)(CCCCN(C)C)c1ccccc1 (centres unmarked) [Compound 2] | 43.7 (≈ 79.5 µM) |  | 43.7 (≈ 79.5 µM) | 43.7 (≈ 79.5 µM) | 21.9 (≈ 39.8 µM) | 8.7 (≈ 15.8 µM) |  | 43.7 (≈ 79.5 µM) |  |  | 43.7 (≈ 79.5 µM) |  |  |  | 43.7 (≈ 79.5 µM) | 
8 | COc1nc2ccc(Br)cc2cc1C(c1ccccc1)C(O)(CCCCN(C)C)c1ccc2cc(Br)ccc2c1 (centres unmarked) [Compound 7] |  |  | 10.5 (≈ 15.8 µM) |  | 2.4 (≈ 3.62 µM) |  |  | 10.5 (≈ 15.8 µM) |  | 10.5 (≈ 15.8 µM) | 10.5 (≈ 15.8 µM) |  | 10.5 (≈ 15.8 µM) |  | 10.5 (≈ 15.8 µM) | 2.1 (≈ 3.17 µM)
